This is an account of results in US7795215B2, “MNTF peptides and compositions and methods of use” (Genervon Biopharmaceuticals LLC, priority 2003, dated 2010).

“Also recorded” adds a separate entry of the source. Where no end group is shown, it is not given here. A value given as a limit tells only on which side of the number the result lay.

One test relates to rat femoral nerve. Put plainly: Femoral nerve model, MNTF pump experiments (Preferential Motor Reinnervation). In kind it is in vivo. Conditions: 10^−4 M, 10^−5 M and 10^−6 M; FIG. 5; vs saline controls. As to the method: The specificity of motor axon regeneration was investigated in the rat femoral nerve. Proximally, at the site of nerve transection and suture, axons that contribute to both cutaneous and muscle branches intermingle throughout the nerve. As these axons regenerate, they have equal access to neighboring motor and sensory Schwann cell tubes in the distal nerve stump. This assures an element of “choice” at the axonal level. Distally, where the specificity of regeneration is assessed, axons are segregated into terminal cutaneous and muscle branches. Motor axons are normally found only in the muscle branch, so any motor reinnervation of the cutaneous branch represents a pathfinding failure. The specificity of axon regeneration is evaluated by simultaneous application of horseradish peroxidase (HRP) to one distal femoral branch and fluoro-gold (FG) to the other. Motor-axon regeneration is random at 3 weeks, but the number of correct projections to muscle increases dramatically at later times. Many neurons initially contain both tracers, and thus project collaterals to both cutaneous and muscle branches. The number of these double-labeled neurons decreases with time. Motor axon collaterals are thus pruned from the cutaneous branch, increasing the number of correct projections to muscle at the expense of double-labeled neurons. A specific interaction thus occurs between regenerating motor axons and muscle and/or muscle nerve that we have termed Preferential Motor Reinnervation (PMR).
In preliminary experiments we attempted to modify motor axon regeneration in the femoral nerve by pumping MNTF 33mer at 10^−4 M onto the repair site, using an Alzet osmotic pump which discharges for at least 2 weeks. The output of the pump was sewn to muscle adjacent to the nerve repair, so that the nerve wound would be continuously bathed with the factor. Reinnervation of the distal femoral cutaneous and muscle branches was quantified with tracers as described above.
In a follow-up experiment MNTF 33mer was administered to eight transected and sutured rat femoral nerves at 10^−4 M, essentially as described above. Controls were a group of six nerves that underwent routine suture with pumps delivering saline but no MNTF. A mean of 100 motoneurons projected correctly in the six controls, whereas a mean of 87 motoneurons projected incorrectly to skin.
To determine if a truncated MNTF peptide could be substituted for MNTF 33mer, subsequent experiments were performed, essentially as described above, using the MNTF 6mer FSRYAR, at 10^−4 M (n=8), 10^−5 M (n=8) and 10^−6 M (n=8), with a total of 22 saline controls for comparison. […] Thus the 6mer is capable of promoting selective reinnervation of target muscles in a manner similar to the MNTF1 33mer.

The test system of test [1] is VSC4.1 cells, a motor neuron/neuroblastoma cell hybrid. The test is described as follows: VSC4.1 cell proliferation assay (BrdU). The class given is cell-based. Conditions: for Biological Function / OD (optimal dose): VSC4.1 proliferation; for maximal increase in cell proliferation: % increase over control; for stimulation of VSC4.1 cell proliferation over controls: second round of experiments. As to the method: Studies of proliferation were performed in 96 well plates utilizing a cell proliferation assay kit from Roche Diagnostics GmbH (Mannheim, Germany). VSC4.1 cells, a motor neuron/neuroblastoma cell hybrid, were cultured in DMEM with 2% FBS containing either no MNTF or a dose range of MNTF from 10^−8 to 10^−5 g/ml. Each treatment was applied in triplicate wells. The cells were cultured for 21 hours and 5-bromo-2′-deoxyuridine (BrdU) from the assay kit was added to each well. After BrdU labeling for 3 hours, the cells were washed, fixed and dried. The cells were then fixed and the DNA denatured to improve access for the subsequent antibody binding. POD-labeled mouse monoclonal anti-BrdU antibody from the assay kit was applied for 2 hours, followed by a wash. The assay was quantitated by adding the colorimetric assay solution (tetramethyl benzidine) and reading at 450 nm on a Wallac Vector 2 plate reader. Cells in the treatment groups were quantitated by comparing to wells plated with a gradient of cells from 0 to 20,000 cells/well on the same plate. Data is expressed as % of control to allow for variability from plate to plate.
Additional cell proliferation assays, conducted essentially as described above, were performed to compare the effects of several GLP grade MNTF peptides.
Further cell proliferation studies were performed, essentially as described above, to test the response of the motor neuron/neuroblastoma cells to three new preparations of MNTF. The MNTF preparations utilized for these assays were: […]

Take FSRYAR [6mer]: in the test with rat femoral nerve, the “correct projections” value is “significant increases in correct projections at every dose tested” and the “incorrect projections to skin” value is given as “marked reductions in the number of incorrect projections to skin”. In test [1] (assay set Mar. 28, 2003), the “Biological Function” value was “Effective” and the “OD (optimal dose)” value turned out to be 1 µg/mL. Besides, in test [1] (assay set Oct. 27, 2002), the “Biological Function” value is given as “Effective” and the “OD (optimal dose)” value amounted to 10 µg/mL. Further, in test [1] (earliest studies, FIG. 2), the “dose of maximal response” value was determined as 10 µg/mL, the “relative effectiveness in proliferation assay (words)” value (from here on “relative effectiveness”) is reported as “comparably effective” and the “maximal increase in cell proliferation” value amounted to 35.1%. Moreover, the “effect on proliferation of motor neuron/neuroblastoma cells (summary in description)” value in test [1] (in vitro) was “sufficient to increase cell proliferation of motor neuron/neuroblastoma cells”. Moreover, the “relative effectiveness” value in test [1] (second set, FIG. 3) was “poorest performers; also recorded: less effectively than the others”. Besides, the “fold increase in proliferation” value in test [1] (second set, FIG. 3, at 1 μg/ml) is around 2.5 fold.
Consider “cyclized MNTF 13mer: cyclized version of the 13-mer CWMLSAFSRYARC, SEQ ID NO:6, research grade (also: cyclized)”, for which, in test [1] (assay set Oct. 27, 2002), the “Biological Function” value was “Limited Efficacy”. Moreover, in test [1] (earliest studies, FIG. 2), the “dose of maximal response” value stood at 1 µg/mL, the “relative effectiveness” value is “least effective of all peptides tested” and the “maximal increase in cell proliferation” value stood at 17.3%. In test [1] (earliest studies, FIG. 2, higher doses), the “effect on proliferation at higher doses” value is reported as “appeared to inhibit proliferation”. Further, in test [1] (earliest studies, FIG. 2, listed as cyclized 13mer), the “relative effectiveness” value is reported as “markedly less effective”. Also, the “effect on proliferation of motor neuron/neuroblastoma cells (summary in description)” value in test [1] (in vitro) is recorded as “not as effective at stimulating cell proliferation in vitro”.
Regarding FSRYARCLAEG [11mer], in test [1] (assay set Mar. 28, 2003), the “Biological Function” value was “Effective” and the “OD (optimal dose)” value is 1 µg/mL. Moreover, in test [1] (assay set Oct. 27, 2002), the “Biological Function” value is reported as “Effective” and the “OD (optimal dose)” value came out at 10 µg/mL. In test [1] (earliest studies, FIG. 2), the “dose of maximal response” value is 10 µg/mL, the “relative effectiveness” value is “comparably effective” and the “maximal increase in cell proliferation” value was 32.2%. Also, the “effect on proliferation of motor neuron/neuroblastoma cells (summary in description)” value in test [1] (in vitro) is listed as “sufficient to increase cell proliferation of motor neuron/neuroblastoma cells”. In addition, the “relative effectiveness” value in test [1] (second set, FIG. 3) is on record as “poorest performers; also recorded: less effectively than the others”. The “fold increase in proliferation” value in test [1] (second set, FIG. 3, at 1 μg/ml) is around 2.5 fold.
As for CWMLSAFSRYARC [13mer], in test [1] (assay set Mar. 28, 2003), the “Biological Function” value is reported as “Effective” and the “OD (optimal dose)” value came to 0.1 µg/mL. The “effect on proliferation of motor neuron/neuroblastoma cells (summary in description)” value in test [1] (in vitro) is reported as “sufficient to increase cell proliferation of motor neuron/neuroblastoma cells”. Also, in test [1], the “stimulation of VSC4.1 cell proliferation over controls” value was at least 250%. For the same substance, in test [1] (second set, FIG. 3), the “relative effectiveness” value was “some efficacy at the lowest dose, this effect fell off at higher doses”.
As to MLSAFSRYARCLAEGHDGPTQ [21mer], in test [1] (assay set Aug. 4, 2003), the “Biological Function” value is “Effective” and the “OD (optimal dose)” value is 0.1 µg/mL. Also, in test [1] (in vitro), the “effect on proliferation of motor neuron/neuroblastoma cells (summary in description)” value is on record as “sufficient to increase cell proliferation of motor neuron/neuroblastoma cells”. Moreover, the “relative effectiveness” value in test [1] (third set, FIG. 4) is “significantly (p<0.05) stimulated proliferation over control; also recorded: about half that of the other two MNTF isoforms”.
In the case of WMLSAFS [7mer], the “Biological Function” value in test [1] (assay set Mar. 28, 2003) was “Effective”; in test [1] (assay set Oct. 27, 2002), “Effective”. The “OD (optimal dose)” value in test [1] (assay set Mar. 28, 2003) was determined as 100 µg/mL; in test [1] (assay set Oct. 27, 2002), 1 µg/mL. Besides, the “dose of maximal response” value in test [1] (earliest studies, FIG. 2) worked out at 1 µg/mL. For the same substance, the “relative effectiveness” value is “markedly less effective” in test [1] (earliest studies, FIG. 2); “broader active dose range than the other preparations” in test [1] (earliest studies, FIG. 2, listed as MNTF 7mer); “most potent preparation across the whole dose range; also recorded: most active proliferative agent” in test [1] (second set, FIG. 3). Moreover, in test [1] (earliest studies, FIG. 2), the “maximal increase in cell proliferation” value amounted to 25.1%. Moreover, the “effect on proliferation of motor neuron/neuroblastoma cells (summary in description)” value in test [1] (in vitro) was “potent stimulator of motor neuron/neuroblastoma cells in vitro over a broad range of dosage levels”. In test [1], the “stimulation of VSC4.1 cell proliferation over controls” value turned out to be 350%. Also, the “fold increase in proliferation” value in test [1] (second set, FIG. 3, highest dose) is around 3.5 fold; in test [1] (second set, FIG. 3, lowest dose applied) it was 2.5 fold.
For “Cyclized MNTF 33mer: cyclized version of the MNTF1 33-mer, SEQ ID NO:1, research grade (LGTFWGDTLNCWMLSAFSRYARCLAEGHDGPTQ; also: cyclized)”, in test [1] (assay set Oct. 27, 2002), the “Biological Function” value was “Limited Efficacy”. Besides, in test [1] (earliest studies, FIG. 2), the “dose of maximal response” value was found to be 0.1 µg/mL, the “relative effectiveness” value is “limited efficacy” and the “maximal increase in cell proliferation” value is 12.9%. The “relative effectiveness” value in test [1] (earliest studies, FIG. 2, listed as cyclized MNTF 33mer) is recorded as “very weak proliferative activity at low doses”. Besides, in test [1] (in vitro), the “effect on proliferation of motor neuron/neuroblastoma cells (summary in description)” value was “less effective”.
With MLSAFSRYAR [10mer], in test [1] (assay set Aug. 4, 2003), the “Biological Function” value was “Effective” and the “OD (optimal dose)” value stood at 0.01 µg/mL. Besides, in test [1] (in vitro), the “effect on proliferation of motor neuron/neuroblastoma cells (summary in description)” value is “at least as effective the full-length MNTF 33mer” and the “lowest concentration at which at least as effective as MNTF 33mer” value was 0.01 µg/mL. Further, the “relative effectiveness” value in test [1] (third set, FIG. 4) is “significantly (p<0.05) stimulated proliferation over control; also recorded: most active proliferative agent; also recorded: clearly superior to the 21mer”. The “increase in proliferation over controls” value in test [1] (third set, FIG. 4, three lowest doses used) is reported as around 200%.
